Read-outs that look alike come from different tables or passages of the source.
What was measured:
[1] = target: T1, cytoplasmic domain of the human CSF-1R (Homo sapiens, UniProt P07333); test: In vitro kinase assay for colony stimulating factor-1 receptor (AlphaScreen); format: biochemical; details: tested at about 1 μM, read-out: CSF-1R percent inhibition
T1 construct: Recombinant protein corresponding to the cytoplasmic domain of the human CSF-1R; purchased Invitrogen Corporation, Carlsbad, Calif; PV3249
T1 sequence (P07333 539-972 limits assumed): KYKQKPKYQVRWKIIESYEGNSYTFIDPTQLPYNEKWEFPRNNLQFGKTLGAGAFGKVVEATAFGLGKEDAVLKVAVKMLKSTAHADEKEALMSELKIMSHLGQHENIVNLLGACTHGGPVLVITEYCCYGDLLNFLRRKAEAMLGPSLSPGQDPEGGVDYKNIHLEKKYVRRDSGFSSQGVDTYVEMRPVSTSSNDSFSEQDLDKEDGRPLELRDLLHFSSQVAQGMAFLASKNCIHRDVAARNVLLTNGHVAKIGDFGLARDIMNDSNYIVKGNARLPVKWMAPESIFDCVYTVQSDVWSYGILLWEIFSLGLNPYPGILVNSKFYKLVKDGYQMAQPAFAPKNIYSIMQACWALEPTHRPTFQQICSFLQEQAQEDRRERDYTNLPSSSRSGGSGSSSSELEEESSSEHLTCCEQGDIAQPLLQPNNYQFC
How it was run: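 At a low ATP level of 1 μM, phosphate transfer by the cytoplasmic-domain kinase (4 nM) was quantified with an AlphaScreen anti-phosphotyrosine bead pair.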

kinase domain of cKIT = target: T2, kinase domain of cKIT (Homo sapiens, UniProt P10721); test: Inhibition of cKIT kinase signaling in an in vitro biochemical assay (alphascreen); details: tested at about 1 μM, read-out: cKit percent inhibition
T2 construct: The kinase domain of cKIT was assayed in 50 mM Hepes; purchased Upstate 14-559
T2 sequence (P10721 589-937 limits assumed): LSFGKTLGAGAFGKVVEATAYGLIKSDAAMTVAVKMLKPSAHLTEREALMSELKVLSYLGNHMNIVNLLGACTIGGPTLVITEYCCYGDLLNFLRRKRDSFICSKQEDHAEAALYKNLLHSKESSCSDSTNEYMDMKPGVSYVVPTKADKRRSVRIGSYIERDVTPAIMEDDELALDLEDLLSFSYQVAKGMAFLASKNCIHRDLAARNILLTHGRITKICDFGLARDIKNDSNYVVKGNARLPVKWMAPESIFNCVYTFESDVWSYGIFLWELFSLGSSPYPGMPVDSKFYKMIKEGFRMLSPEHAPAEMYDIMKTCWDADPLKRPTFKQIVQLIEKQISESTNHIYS

kinase domain of PDGFRβ = target: T3, kinase domain of PDGFRβ (Homo sapiens, UniProt P09619); test: Inhibition of PDGFRb kinase signaling in an in vitro biochemical assay (alphascreen); details: tested at about 1 μM, read-out: PDGFRβ percent inhibition
T3 construct: The kinase domain of PDGFRβ was assayed in 50 mM Hepes; purchased Invitrogen P3082
T3 sequence (P09619 600-962 limits assumed): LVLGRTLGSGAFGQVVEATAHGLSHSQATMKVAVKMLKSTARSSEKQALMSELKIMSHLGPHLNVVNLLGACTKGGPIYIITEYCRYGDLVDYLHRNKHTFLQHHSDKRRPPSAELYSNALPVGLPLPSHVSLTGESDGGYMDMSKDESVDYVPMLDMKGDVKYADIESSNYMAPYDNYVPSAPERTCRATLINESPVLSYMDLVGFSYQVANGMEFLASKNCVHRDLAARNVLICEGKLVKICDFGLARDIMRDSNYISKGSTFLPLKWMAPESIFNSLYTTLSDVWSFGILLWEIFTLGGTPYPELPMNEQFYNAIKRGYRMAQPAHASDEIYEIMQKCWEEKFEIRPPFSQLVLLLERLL

[2] = system: MNFS60 (murine AML cells); test: Cell viability assay in MCSF dependent MNFS60 cells (Cell Titer Glo); format: cell-based; details: Mus musculus, tested at about 1 μM, read-out: M-NFS-60 CP percent inhibition
How it was run: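 Viability was read by Cell Titer Glo after 72 hrs at 37° C., 5% CO2, with triplicate conditions. Compounds were titrated 3-fold into MNFS60 cultures whose final MCSF level was 10 ng/ml. EC50 values came from curve fitting.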

inhibition at 1 µM ([1]; compounds of Table 3) | inhibition at 1 µM (kinase domain of cKIT; compounds of Table 3) | inhibition at 1 µM (kinase domain of PDGFRβ; compounds of Table 3) | inhibition at 1 µM [1] | inhibition at 1 µM (kinase domain of cKIT) | inhibition at 1 µM (kinase domain of PDGFRβ) | SMILES | inhibition at 1 µM ([2]; compounds of Table 3) | inhibition at 1 µM ([2]; MCSF dependent MNFS60 cells) | inhibition at 1 µM ([2]; MNFS60 cells)
100% | 97% | 88% | – | – | – | N#Cc1ccc2c(Oc3ccc4nc(NCC5CCCCC5)sc4c3)ccnc2c1 [Example 221, 4-(2-(cyclohexylmethylamino)benzo[d]thiazol-6-yloxy)quinoline-7-carbonitrile] | 52% | – | –
100% | 85% | 50% | – | – | – | Fc1cc2nccc(Oc3ccc4nc(NCC5CCCCC5)sc4c3)c2cc1F [Example 211] | 23% | – | –
– | – | – | 100% | 97% | 38% | CNC(=O)c1cc(Oc2cc(Cl)c3nc(NCC4CCCCC4)sc3c2)ccn1 [Example 375, 4-(4-chloro-2-(cyclohexylmethylamino)benzo[d]thiazol-6-yloxy)-N-methylpicolinamide] | – | 19% | –
100% | 100% | 47% | – | – | – | Fc1ccc2c(Oc3ccc4nc(NCC5CCCCC5)sc4c3)ccnc2c1 [Example 227, N-(cyclohexylmethyl)-6-(7-fluoroquinolin-4-yloxy)benzo[d]thiazol-2-amine] | 65% | – | –
– | – | – | 100% | 92% | 15% | CNC(=O)c1cc(Oc2ccc3nc(NCc4cc(Cl)ccc4OC)oc3c2)ccn1 [Compound 114, 4-[2-(5-Chloro-2-methoxy-benzylamino)-benzooxazol-6-yloxy]-pyridine-2-carboxylic acid methylamide] | – | – | 36%
99% | 38% | 20% | – | – | – | Cc1nn(C)c(C)c1-c1cc(Oc2ccc3nc(N[C@@H]4CCCC[C@H]4O)sc3c2)ccn1 [Example 283, (1R,2R)-2-(6-(2-(1,3,5-trimethyl-1H-pyrazol-4-yl)pyridin-4-yloxy)benzo[d]thiazol-2-ylamino)cyclohexanol] | 0% | – | –
– | – | – | 99% | 5% | 0% | CNC(=O)c1cc(Oc2ccc3nc(NCc4ccc(OC)c(OC)c4)sc3c2)ccn1 [Compound 151, 4-[2-(3,4-Dimethoxy-benzyl-amino)-benzothiazol-6-yloxy]-pyridine-2-carboxylic acid methylamide] | – | – | 26%

Continued, compound first:

SMILES | inhibition at 1 µM ([1]; compounds of Table 3) | inhibition at 1 µM (kinase domain of cKIT; compounds of Table 3) | inhibition at 1 µM (kinase domain of PDGFRβ; compounds of Table 3) | inhibition at 1 µM [1] | inhibition at 1 µM (kinase domain of cKIT) | inhibition at 1 µM (kinase domain of PDGFRβ) | inhibition at 1 µM ([2]; compounds of Table 3) | inhibition at 1 µM ([2]; MCSF dependent MNFS60 cells) | inhibition at 1 µM ([2]; MNFS60 cells)
OC[C@@H](Nc1nc2ccc(Oc3ccnc4ccccc34)cc2s1)c1ccccc1 [Example 235, (S)-2-phenyl-2-(6-(quinolin-4-yloxy)benzo[d]thiazol-2-ylamino)ethanol] | 100% | 100% | 81% | – | – | – | 100% | – | –
O[C@@H]1Cc2ccccc2[C@@H]1Nc1nc2ccc(Oc3ccnc4ccccc34)cc2s1 [Example 239, (1S,2R)-1-(6-(quinolin-4-yloxy)benzo[d]thiazol-2-ylamino)-2,3-dihydro-1H-inden-2-ol] | 100% | 100% | 25% | – | – | – | 90% | – | –
C[C@H](Nc1nc2ccc(Oc3ccnc(Cl)c3)cc2s1)C1CCCCC1 [Example 264, (S)-6-(2-chloropyridin-4-yloxy)-N-(1-cyclohexylethyl)benzo[d]thiazol-2-amine] | 97% | 25% | 4% | – | – | – | 3% | – | –
Cn1cc(-c2cnccc2Oc2ccc3nc(N[C@@H]4CCCC[C@H]4O)sc3c2)cn1 [Example 189] | 100% | 31% | 23% | – | – | – | 26% | – | –
OC[C@H](Cc1ccccc1)Nc1nc2ccc(Oc3ccnc4ccccc34)cc2s1 [Example 242] | 100% | 97% | 35% | – | – | – | 51% | – | –
OC[C@@H](Nc1nc2ccc(Oc3ccnc4ccccc34)cc2s1)C1CCCCC1 [Example 236, (S)-2-cyclohexyl-2-(6-(quinolin-4-yloxy)benzo[d]thiazol-2-ylamino)ethanol] | 100% | 100% | 97% | – | – | – | 100% | – | –
